From patent publication US20110263552A1, “MODULATION OF SIDE EFFECT PROFILE OF 5-ALPHA REDUCTASE INHIBITOR THERAPY” (SOV Therapeutics, priority 2009, published 2011)
Marks after values point to notes of the source that are not given here.

Experiments:
Male Sprague-Dawley rats = test: Organ weights in rats after 14 days of dosing (Example 9); type: in vivo
From the text: The organ weights obtained from Bramson et al. are given in the right-hand column of the table for reference (Bramson, H. N., Journal of Pharmacology and Experimental Therapeutics, 1496-1502, (1997).)

[1] = Testosterone undecanoate (TU) solubility in various solubilizers
[2] = oral 200 mg twice daily, cited from earlier work
[3] = system: absorption of cholesterol; conditions: ingestion of 1 g; meal containing 500 mg of cholesterol; cited from earlier work
[4] = male Sprague-Dawley rats, 80 mg/kg/day TU, without or with 1 mg/kg/day D

Question: For `CCCCCCCCCCC(=O)O[C@H]1CC[C@H]2[C@@H]3CCC4=CC(=O)CC[C@]4(C)[C@H]3CC[C@]12C` [TU, testosterone undecanoate], which “Body weight, Mean” value (Male Sprague-Dawley rats; [4]) is on record?
Answer: Its value is 284 g.

Question: What about the “Seminal vesicles weight, Mean” value (Male Sprague-Dawley rats; [4]) of the same compound?
Answer: Its value is 0.902 grams.

Question: What about the “Testicles weight, Mean” value (Male Sprague-Dawley rats; [4]) of the same compound?
Answer: The value was 3.374 grams.

Question: What about the “Ventral prostate weight, Mean” value (Male Sprague-Dawley rats; [4]) of the same compound?
Answer: The value was 0.22 grams.

Question: What about the “Difference in organ weight versus vehicle-only” value (Male Sprague-Dawley rats; rats, any organ measured) of the same compound?
Answer: Its value is “No significant differences in weight”.

Question: And the “TU Solubility” value ([1]; vehicle Acconon CO-7, at 37 C.)?
Answer: The value was 59 mg/g.

Question: And the “TU Solubility” value ([1]; vehicle Canola oil, at 37 C.)?
Answer: The value was 167 mg/g.

Question: What about the “TU Solubility” value ([1]; vehicle Capmul MCM, determined at 25° C.) of the same compound?
Answer: The value was >100* mg/g.

Question: And the “TU Solubility” value ([1]; vehicle Capmul PG-8, determined at 25° C.)?
Answer: Its value is >100* mg/g.

Question: What about the “TU Solubility” value ([1]; vehicle Caprylic acid, at 37 C.) of the same compound?
Answer: The value was 595 mg/g.

Question: And the “TU Solubility” value ([1]; vehicle Castor oil, at 37 C.)?
Answer: The value was 218 mg/g.

Question: What about the “TU Solubility” value ([1]; vehicle Corn oil, at 37 C.) of the same compound?
Answer: The value was 243 mg/g.

Question: What about the “TU Solubility” value ([1]; vehicle Cremophor RH40, determined at 25° C.) of the same compound?
Answer: The value was 88* mg/g.

Question: And the “TU Solubility” value ([1]; vehicle Crodamol EO (ethyl oleate), at 37 C.)?
Answer: The value was 221 mg/g.

Question: And the “TU Solubility” value ([1]; vehicle Crodamol IPM (isopropyl myristate), at 37 C.)?
Answer: The value was 295 mg/g.

Question: What about the “TU Solubility” value ([1]; vehicle Crodamol IPP (isopropyl palmitate), at 37 C.) of the same compound?
Answer: The value was 215 mg/g.

Question: What about the “TU Solubility” value ([1]; vehicle Ethyl linoleate, at 37 C.) of the same compound?
Answer: The value was 230 mg/g.

Question: What about the “TU Solubility” value ([1]; vehicle Glyceryl monooleate or GMO (Peceol (Gattefosse)), at 37 C.) of the same compound?
Answer: The value was 323 mg/g.

Question: And the “TU Solubility” value ([1]; vehicle Glyceryl ricinoleate (Softigen 701), at 37 C.)?
Answer: Its value is 261 mg/g.

Question: And the “TU Solubility” value ([1]; vehicle Glyceryl trioleate (Capmul GTO), at 37 C.)?
Answer: Its value is 154 mg/g.

Question: And the “TU Solubility” value ([1]; vehicle Incromega E7010 (omega-3), at 37 C.)?
Answer: Its value is 247 mg/g.

Question: And the “TU Solubility” value ([1]; vehicle Incromega TG7010 SR (omega-3 high purity), at 37 C.)?
Answer: The value was 225 mg/g.

Question: What about the “TU Solubility” value ([1]; vehicle Labrafil M 2125 CS, at 37 C.) of the same compound?
Answer: The value was 257 mg/g.

Question: And the “TU Solubility” value ([1]; vehicle Labrasol, determined at 25° C.)?
Answer: The value was 43* mg/g.

Question: And the “TU Solubility” value ([1]; vehicle Linoleic acid, at 37 C.)?
Answer: Its value is 391 mg/g.

Question: What about the “TU Solubility” value ([1]; vehicle Linolenic acid, at 37 C.) of the same compound?
Answer: Its value is 162 mg/g.

Question: And the “TU Solubility” value ([1]; vehicle Maisine 35-1, at 37 C.)?
Answer: The value was 93 mg/g.

Question: And the “TU Solubility” value ([1]; vehicle Miglyol 812, determined at 25° C.)?
Answer: The value was >100* mg/g.

Question: And the “TU Solubility” value ([1]; vehicle N-methyl pyrolidone, at 37 C.)?
Answer: The value was >500 mg/g.

Question: And the “TU Solubility” value ([1]; vehicle Oleic acid, at 37 C.)?
Answer: Its value is 405 mg/g.

Question: What about the “TU Solubility” value ([1]; vehicle Omega-3 ethyl esters w/antioxidant (AMRI), at 37 C.) of the same compound?
Answer: The value was 261 mg/g.

Question: And the “TU Solubility” value ([1]; vehicle Omega-3 ethyl esters w/o antioxidant (AMRI), at 37 C.)?
Answer: Its value is 360 mg/g.

Question: And the “TU Solubility” value ([1]; vehicle Polyglyceryl-3-diisostearate (Plurol diisosterique), at 37 C.)?
Answer: The value was 173 mg/g.

Question: What about the “TU Solubility” value ([1]; vehicle Polyglyceryl-3-dioleate (Plurol oleique CC497), at 37 C.) of the same compound?
Answer: The value was 193 mg/g.

Question: And the “TU Solubility” value ([1]; vehicle Polyglyceryl-6-dioleate (Caprol MPGO, Abitec), at 37 C.)?
Answer: The value was 184 mg/g.

Question: And the “TU Solubility” value ([1]; vehicle Polysorbate 80 (Tween 80), determined at 25° C.)?
Answer: The value was 39* mg/g.

Question: And the “TU Solubility” value ([1]; vehicle Polysorbate 85, at 37 C.)?
Answer: The value was 125 mg/g.

Question: And the “TU Solubility” value ([1]; vehicle Propylene glycol monocaprylate (Capryol 90, Gattefosse), at 37 C.)?
Answer: The value was 486 mg/g.

Question: What about the “TU Solubility” value ([1]; vehicle Propylene glycol monolaurate, determined at 25° C.) of the same compound?
Answer: Its value is >200* mg/g.

Question: And the “TU Solubility” value ([1]; vehicle Rapeseed oil, at 37 C.)?
Answer: Its value is 123 mg/g.

Question: And the “TU Solubility” value ([1]; vehicle Ricinoleic acid, at 37 C.)?
Answer: The value was 244 mg/g.

Question: And the “TU Solubility” value ([1]; vehicle Safflower oil, at 37 C.)?
Answer: Its value is 124 mg/g.

Question: And the “TU Solubility” value ([1]; vehicle Span 80, at 37 C.)?
Answer: The value was 289 mg/g.

Question: And the “TU Solubility” value ([1]; vehicle Sunflower oil, at 37 C.)?
Answer: The value was 105 mg/g.

Question: What about the “TU Solubility” value ([1]; vehicle Transcutol HP, at 37 C.) of the same compound?
Answer: Its value is 180 mg/g.

Question: And the “TU Solubility” value ([1]; vehicle dl-alpha-tocopherol, at 37 C.)?
Answer: The value was 527 mg/g.

Question: What does the source list for `C[C@]12CC[C@H]3[C@@H](CCC4=CC(=O)CC[C@@]43C)[C@@H]1CC[C@@H]2O` [micronized testosterone, testosterone]?
Answer: time at desired level of serum testosterone for each peak ([2]; Daggett et al.): about 4 hours; time of total serum testosterone within the normal range ([2]; Føgh et al.): greater than 12 hours

Question: Which “reduction of absorption of cholesterol” value [3] does the source give for `CC[C@H](CC[C@@H](C)[C@H]1CC[C@H]2[C@@H]3CC=C4C[C@@H](O)CC[C@]4(C)[C@H]3CC[C@]12C)C(C)C` [β-sitosterol] here?
Answer: The value was 42%.
